# Assays:
# SCC7 tumor [1] = test: In vivo and ex vivo NIR fluorescence bio-distribution (IVIS); parameters: species or system mice
# Description: The same group of mice was investigated as to NIR fluorescence signals by an in vivo imaging system (IVIS).
# The free ICG solution (2 mg/kg) was injected into other mice as a control group for IVIS imaging. […] Gradual reduction of the signals means that free ICG molecules were quickly discharged from the bodies of the mice (FIG. 8b).
# In-vivo bio-distribution of the PB-BSA-ICG nanoparticles and free ICG was analyzed by optical fluorescence imaging. […] Fluorescence signals in the mice subjected to injection of free ICG (2 mg/kg) were also recorded at time intervals similar to those set forth above.
# The mice were sacrificed 24 hours after injection, and fluorescence signals (liver, lung, spleen, heart, and kidney) from resected tumors and major organs were measured.
# SCC7 cells [2] = test: Intracellular singlet oxygen generation with H2DCF-DA probe; type: cell-based; details: SCC7, after 808 nm laser irradiation
# Description: Further, free ICG has photodynamic properties and can generate singlet oxygen (^1O2) when exposed to an 808 nm NIR laser beam. Generation of intracellular singlet oxygen (^1O2) was analyzed using 2′,7′-dichlorodihydrofluorescein diacetate (H2DCF-DA) dye as a reactive oxygen species (ROS) probe.
# SCC7 cells [3] = test: In vitro laser induced phototherapy, cell viability; type: cell-based; details: Mus musculus, SCC-7, light or radiation study, 5 min, 808 nm, 1 W/cm^2, 5 minutes, PB 80 μg/ml, ICG 10 μg/ml, read-out: cell viability after NIR laser irradiation
# Description: (§1) Next, the cells were completely cleaned and fresh medium was added to each of the wells. Next, the cells were irradiated with an 808 nm NIR laser beam for 5 minutes.
# (§2) After laser irradiation, the cells were further cultured for 12 hours, and cell viability was measured by WST-1 analysis.
# [4] = as above; type: cell-based; details: mouse, SCC7 cells, PB 80 μg/ml, ICG 10 μg/ml, read-out: cell viability without laser treatment
# Description: as §1, §2
# [5] = Photothermal properties of solutions under 808 nm NIR laser; details: 1 W/cm^2, ICG 10 μg/ml
# Description: 500 μl of each of the solutions was placed in a centrifuge tube and irradiated with an NIR laser beam at a power density of 1 W/cm^2 and temperature change of the solutions receiving the laser beam was measured in real time by an infrared (IR) thermal imaging system (FLIR SC-300, FLIR Systems Inc., Danderyd, Sweden).
# SCC7 tumor [6] = type: in vivo
# Description: 24 hours after injection, tumor sites of all of the mice were irradiated with a continuous wave NIR laser beam (808 nm, 1 W/cm^2, 10 minutes) for phototherapy, and real-time temperature increase during laser irradiation was monitored by an IR thermal camera (FIGS. 10a and 10b).
# In-vivo phototherapy: The tumor-xenograft mice were produced in the same manner as described above. The mice, in which tumors had grown to a desired volume (about 100 mm^3), were divided into four groups, that is, a saline solution group, a free ICG group, a PB-BSA nanoparticle group, and PB-BSA-ICG nanoparticle group. According to the groups, each sample was injected into a vein of the corresponding mouse (administration of 2 mg/kg of ICG, administration of 20 mg/kg of PB).
# 24 hours after injection, the tumor of each of the mice was exposed to an 808 nm NIR laser beam (1 W/cm^2) for 10 minutes, real-time temperature change of the tumor region during laser treatment was monitored by an IR thermal imaging system. The size of the tumor after treatment was measured at a specific time point using a digital caliper.
# [7] = repeated laser irradiation, 3 minutes per cycle
# [8] = 808 nm, 1 W/cm^2, 10 minutes, 24 hours after injection
smiles,measurement,setting,value
"CC1(C)C(/C=C/C=C/C=C/C=C2\N(CCCCS(=O)(=O)O)c3ccc4ccccc4c3C2(C)C)=[N+](CCCCS(=O)(=O)[O-])c2ccc3ccccc3c21 [free ICG, Indocyanine green]",in vivo NIR fluorescence signal distribution,"SCC7 tumor [1]; 3 hours after injection, 2 mg/kg",strong signals at liver sites
same,ex vivo fluorescence signals of livers,SCC7 tumor [1]; 24 hours after injection,significantly high fluorescence signals
same,ex vivo fluorescence signals of tumors,SCC7 tumor [1]; 24 hours after injection,low signals
same,intracellular ^1O2 generation (green fluorescence of H2DCF-DA),SCC7 cells [2],intracellular green fluorescence signals were observed
same,viability at 10 µg/mL,SCC7 cells [3],55%
same,"viability at 24 h, 10 μg/ml",[4],~100%
same,temperature increase,"[5]; laser irradiation for 5 minutes, 808 nm, PB 80 μg/ml",10 °C
same,"temperature increase, first cycle",[5]; [7],about 10 °C
same,"temperature increase, second cycle",[5]; [7],about 6 °C
same,"temperature increase, third cycle",[5]; [7],2.5 °C
same,average temperature increase of tumor,SCC7 tumor [6]; [8],about 6 °C
same,final tumor temperature,SCC7 tumor [6]; [8],42 °C
same,tumor response after laser treatment,"SCC7 tumor [6]; monitored for 14 days, ICG 2 mg/kg, PB 20 mg/kg",did not exhibit meaningful tumor regression

# — patent publication US10973933B2, “Nanoparticles for diagnosis and treatment of tumors” (GWANGJU INSTITUTE OF SCIENCE AND TECHNOLOGY, priority 2015, dated 2021)
